The values that follow come from patent publication US11137392B2, “Cantilever sensors for molecule detection” (3P SENSE LIMITED, priority 2016, dated 2021).

In assay [1] the test system is vancomycin susceptible receptor (VSR). Particulars: previous measurements (known cantilever); cited from earlier work.
Assay [2] has the same test system. Kind of assay: Differential cantilever bending / surface stress of unpassivated VSR-functionalized cantilevers against Van. The format is binding. As for the experimental part: Detection of cantilever bending response in case of optical readout is performed, for example, by using serial time multiplexed optical beam method with a single position sensitive detector, although other readouts such as electronic or diffraction can be used. The laser spot (about 100 μm diameter) is aligned onto the free end of each sensor where the accuracy of alignment is confirmed by heating test. The expected precision of laser spot alignment is determined by calculating the bending variation at the maximum bending signals between individual cantilever sensors. Well aligned cantilevers at the maximum bending signals should yield a relative standard deviation of the bending signals of about ≤10%, preferably about ≤5%, between them. Correlating the response signal to the presence or absence of the molecule to be detected includes a first step of calculating the net change in stress, using the mathematical model reported above, and then a second step of associating the net change in stress value to the presence of absence of the molecule and, in case of presence, to the concentration level of the molecule.
Case I: Simultaneous functionalization of Au(top) and Si(bottom) surfaces of cantilever arrays: To systematically alter both Au(top) and Si(bottom) surfaces into chemically active sensing layers, the arrays of eight rectangular cantilevers were subjected to surface capture molecules in micro-capillary glass tubes (King Precision Glass, Claremont, Calif., USA), arranged according to the cantilever pitch size of 250 μm. The alkanethiols of self-assembled monolayers (SAMs), namely vancomycin susceptible receptor (VSR˜0.6 kDa) analogues to bacterial cell wall precursors that present uncrosslinked peptide motifs terminating in the sequence lysine-D-alanine-D-alanine and ‘inert’ SAM molecule terminating in triethylene glycol (PEG) whose detailed structural sequences have been described previously were diluted in ethanol solution to yield total concentrations of: 0.1 μM, 1 μM, 10 μM, 50 μM, 100 μM, 1000 μM, 2000 μM, 3000 μM and 4000 μM. Individual VSR and PEG concentrations were injected into micro-capillary glass tubes and cantilevers were then incubated inside the capillaries for 20 min, washed three times with ethanol and stored in distilled water until usage. The functionalization procedure was carried out without pre-adsorbing resistive protein monolayer bovine serum albumin (BSA) or PEG-silane, known for blocking nonspecific interactions.
To tune the receptor footprint (area per each receptor molecule) for enhanced biodetectability and to achieve satisfactory quantitative drug-target measurements, certain steps within the functionalization protocol were addressed. The first task was to define the percentage ratio of VSR by incorporating a receptor molecule with second SAM-forming molecule PEG. The ratio of VSR and PEG molecules dissolved in ethanol was varied to yield a total concentration in the solution of 1 μM, for which full surface coverage was established. The corresponding mixed ethanolic thiol solutions of VSR and ‘inert’ PEG mixed in the ratio of 30%, 70%, 90%, and 100% were used to coat cantilever arrays.
FIG. 1a-b show the functionalization of both surfaces of the cantilever with a self-assembled monolayer (SAM) of vancomycin (Van) susceptible receptor (VSR ˜0.6 kDa) analogues of the bacterial cell wall precursors that present uncrosslinked peptide motifs terminating in the sequence lysine-D-alanine-D-alanine. To eliminate the artifacts that produce non-specific signals differential measurements were performed in which reference polyethylene glycol(PEG)-coated cantilever bending signals were subtracted from the receptor signals.
This functionalization was performed without pre-adsorbing a resistive protein monolayer of bovine serum albumin (BSA) or PEG-silane, which are known to block non-specific interactions. […]

As for `CN[C@H](CC(C)C)C(=O)N[C@H]1C(=O)N[C@@H](CC(N)=O)C(=O)N[C@H]2C(=O)N[C@H]3C(=O)N[C@H](C(=O)N[C@H](C(=O)O)c4cc(O)cc(O)c4-c4cc3ccc4O)[C@H](O)c3ccc(c(Cl)c3)Oc3cc2cc(c3O[C@@H]2O[C@H](CO)[C@@H](O)[C@H](O)[C@H]2O[C@H]2C[C@](C)(N)[C@H](O)[C@H](C)O2)Oc2ccc(cc2Cl)[C@H]1O` [Van, vancomycin], the “Net stress, previous measurements” value in assay [1] was 33 mN m^−1. Besides, in assay [2] (Van 250 μM, VSR 50 μM in functionalizing solution, unpassivated cantilever), the “Compressive stress (differential surface stress)” value is given as 52 mN m^−1. Also, the “Stress signal σmax” value in assay [2] (Van 250 μM, VSR concentration beyond 50 μM (regime II)) was “≈ 5 mN m^−1”. Besides, the Cantilever stress result in assay [2] (Van 250 μM, VSR/PEG 100% receptor, total concentration 1 μM) was “highest stress”. Further, in assay [2] (Van 250 μM, VSR/PEG ~30% receptor, total concentration 1 μM), the Cantilever deflection signal entry is reported as “negligible”. The “Differential stress / bending response on reference PEG-coated cantilevers” value in assay [2] (Van 250 μM, reference PEG-coated cantilevers) is “no bending response and zero”. Moreover, the “Mechanical response on uncoated Au and Si surfaces” value in assay [2] (in the presence of Van, uncoated Au and Si surfaces as control) is recorded as “undetectable”.
